From patent US6242449A, “3-benzoylindole derivatives and drugs containing the same” (Zeria Pharmaceutical Co., Ltd., priority 1997, dated 2001) come the findings set out here.

Assay [1] concerns the target T1, α1 -adrenergic receptor (Oryctolagus cuniculus, UniProt O02824).
T1 construct: Transverse smooth muscle strips were prepared; from tissue; host or cells: rabbit prostate, transverse smooth muscle strips
T1 sequence (O02824 1-466): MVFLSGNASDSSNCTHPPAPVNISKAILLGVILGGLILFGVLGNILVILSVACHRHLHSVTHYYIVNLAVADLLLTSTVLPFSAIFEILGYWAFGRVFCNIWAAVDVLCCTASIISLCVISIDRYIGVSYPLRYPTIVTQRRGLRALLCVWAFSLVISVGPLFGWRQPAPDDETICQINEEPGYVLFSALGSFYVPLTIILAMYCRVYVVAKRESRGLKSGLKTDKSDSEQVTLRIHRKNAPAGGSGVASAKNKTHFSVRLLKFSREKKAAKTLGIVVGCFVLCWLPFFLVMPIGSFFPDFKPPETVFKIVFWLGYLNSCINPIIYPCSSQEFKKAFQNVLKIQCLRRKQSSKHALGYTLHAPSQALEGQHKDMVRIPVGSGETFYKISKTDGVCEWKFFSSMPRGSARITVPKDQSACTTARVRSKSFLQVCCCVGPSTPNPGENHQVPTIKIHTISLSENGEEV
The experiment in a line: α1-Adrenergic receptor blocking action, rabbit urethra smooth muscle strips (phenylephrine contraction). Type of assay: cell-based. The procedure:
(§1) Rabbits were sacrificed by exsanguination, and in each rabbit the urethra and prostate were isolated from the lower urinary tract system. Transverse smooth muscle strips were prepared. Each strip was suspended in a 37° C. Krebs-solution-containing organ bath which had been bubbled with 95% O2 and 5% CO2. Isometric contraction under a resting tension of 1 g was recorded with an isometric transducer (TB-651T, Nihon Koden) on a thermal pen-type recorder (RECTI HORIZ 8K, Nihon Denki San'ei).
(§2) The strip was allowed to stand for equilibration for 60 minutes, and contractions were elicited by a certain concentration of phenylephrine (10^-5 M). The organ bath was washed with a nutrient liquid. Thereafter, the above procedure was repeated at 60-minute intervals until constant contraction responses were obtained. Subsequently, dose-response curves were obtained by administration of phenylephrine in an accumulative manner (10^-7 to 3×10^-4 M). After the strips were washed and then rested for 60 minutes, the strips were treated with a test drug solution (i.e., DMSO solution containing the test drug; 10^-7 to 10^-5 M) for 30 minutes, to thereby obtain dose-response curves for phenylephrine.
(§3) The composition of the nutrient solution was as follows.
(§4) In all cases, 10^-5 M propranolol (β-adrenaline antagonist) was administered 10 minutes before administration of the drug.
(§5) The efficacy of each test drug in terms of α1 -adrenergic receptor blocking action was assessed from calculation of pA2 (inverse of logarithm of the mole concentration of antagonist which requires, in the presence of an antagonist, twice the concentration of an agonist that provides an effect equal to that obtained in the absence of an antagonist).

In assay [2] the target is T1, α1 -adrenergic receptor. The experiment in a line: α1-Adrenergic receptor blocking action, rabbit prostate smooth muscle strips (phenylephrine contraction). In kind it is cell-based. The procedure:
as §1, §2, §3, §4, §5

Assay [3] has as its target Testosterone 5α-reductase. The experiment in a line: Testosterone 5α-reductase inhibitory action, nuclear fraction of rat prostates. Type of assay: biochemical, Wistar rat. The note with it: rat prostate nuclear fraction, [4-^14 C]-testosterone, NADPH, pH 7.0, 60 minutes at 37° C. The procedure: Male Wistar rats (age: 9-10 weeks old) were anesthetized with ether. The abdomen of each rat was median-cut to thereby remove the prostate. The isolated prostates were weighed and homogenized in 3 tissue volumes of 50 mM Tris-HCl buffer (pH 7.2) containing 0.25 M sucrose. The homogenates were filtered with gauze and centrifuged at 3,000 rpm for 10 minutes. The pellets were resuspended in a buffer as described above and the resultant suspension was used as a nuclear fraction.
The nuclear fraction of the prostates (0.1 ml), 5 mM NADPH (0.1 ml), and a test drug solution (DMSO solution containing the test drug; 0.01 ml) were added to 50 mM Tris-HCl buffer (pH 7.0; 0.78 ml). Reaction was initiated by addition of 150 μM [4-^14 C]-testosterone (0.01 ml) to the resultant solution, and the reaction mixture was incubated for 60 minutes at 37° C. After incubation, reaction was stopped by addition of ethyl acetate (4 ml), and simultaneously, the reaction mixture was subjected to extraction. The extract (3 ml) was brought to dryness through evaporation with nitrogen gas. Ethyl acetate (40 μl) was added thereto, and a 10 μl portion was applied to a silica gel thin layer plate for development with a solvent mixture of ethyl acetate and cyclohexane (1:1). After development, the plate was subjected to autoradiography, and spots attributed to testosterone, dihydrotestosterone, and other metabolites were collected by scraping. Radioactivity of the spots was counted in a liquid scintillation counter. From the total radioactivity and the radioactivity of 5α-metabolites, reaction ratio was obtained. IC50 of the compound, which represents the inhibitory activity of the test compound, was calculated from the reaction ratio of the control solvent and the reaction ratio obtained when the compound was added.

Setting [4] is: rabbit urethra strips, phenylephrine 10^-7 to 3×10^-4 M, test drug 30 minutes, 10^-5 M propranolol present, read-out: Urethra (pA2) (converted).
Setting [5] is: rabbit prostate strips, phenylephrine 10^-7 to 3×10^-4 M, test drug 30 minutes, 10^-5 M propranolol present, read-out: Prostate (pA2) (converted).

Structures can show the parent of a compound that is named as a salt.

A word on the IC50: it is the concentration that inhibits the measured activity by half. On to `CCc1ccc(CNc2ccc(C(=O)c3cn(CCCC(=O)O)c4ccccc34)cc2OCCCN2CCN(c3ccccc3OC)CC2)cc1` [Example 1, 4-{3-{4-(4-Ethylphenyl)methylamino-3-{3-[4-(2-methoxyphenyl)piperazin-1-yl]propoxy}benzoyl}indol-1-yl}butanoic acid hydrochloride], for which the Kb on α1 -adrenergic receptor [1] is 302 nM; at α1 -adrenergic receptor [2] it was 224 nM. 0.7 nM corresponded to half-maximal inhibition in assay [3] (IC50).
As to `COc1ccccc1N1CCN(CCCOc2cc(C(=O)c3cn(CCCC(=O)O)c4ccccc34)ccc2NCc2ccccc2)CC1` [Example 5], the results for the Kb on α1 -adrenergic receptor [1] (setting [4]) and on α1 -adrenergic receptor [2] (setting [5]) were 174 nM and 53.7 nM, respectively.
`COc1ccccc1N1CCN(CCCOc2cc(C(=O)c3cn(CCCC(=O)O)c4ccccc34)ccc2NCc2ccc(C)cc2)CC1` [Example 7]: the Kb on α1 -adrenergic receptor [1] (setting [4]) is 316 nM; on α1 -adrenergic receptor [2] (setting [5]), 95.5 nM. Moreover, in assay [3], the IC50 was determined as 0.86 nM.
Turning to `CCOc1ccccc1N1CCN(CCCOc2cc(C(=O)c3cn(CCCC(=O)O)c4ccccc34)ccc2NCc2ccc(C)cc2)CC1` [Example 8, 4-{3-{4-[(4-Methylphenyl)methylamino]-3-{3-[4-(2-ethoxyphenyl)piperazin-1-yl]propoxy}benzoyl}indol-1-yl}butanoic acid], the IC50 in assay [3] came to 1 nM.
On the same count and under the same terms, the result for `CCOc1ccccc1N1CCN(CCCOc2cc(C(=O)c3cn(CCCC(=O)O)c4ccccc34)ccc2NCc2ccc(CC)cc2)CC1` [Example 10, 4-{3-{3-{3-[4-(2-Ethoxyphenyl)piperazin-1-yl]propoxy}-4-[(4-ethylphenyl)methylamino]benzoyl}indol-1-yl}butanoic acid] reads 0.47 nM.
